Series [1] can be described thus: In vivo pharmacokinetics in SD rats. The procedure:
Compound stock solution preparation: an appropriate amount of solid powder of the compounds were weighed separately, a certain amount of DMSO was added and 20 mg/mL of stock solution was obtained under vortex ultrasound.
Preparation of test compound for gavage: an appropriate amount of compound stock solution was taken by pipette, a certain amount of Solutol HS15 solution was added, the mixture was vortexed for 1 minute, then a certain amount of saline was added, and 1 mg/mL of solution was obtained after mixing well.
Preparation of test compounds for intravenous injection: an appropriate amount of compound stock solution was taken by pipette separately, a certain amount of Solutol HS15 solution was added, the mixture was vortexed for 1 minute, then a certain amount of physiological saline was added and a solution of 0.5 mg/mL was obtained after mixing well.
The animals were fasted overnight before administration by gavage, and food was given 4 hours after administration, during which they were free to drink. Two groups were set for each test compound, intravenous injection group and oral administration group, and the dose and mode of administration were shown in Table 12 below.
The blood samples were centrifuged at 4° C. for 5 min at 2,000 g to separate the plasma. The plasma samples were analyzed by LC/MS/MS to detect the concentration of each test compound in the plasma samples.
The parameters related to the […] were obtained by calculations with WinNonlin® Professional software.

Series [2] relates to gouty arthritis in rats (urate crystals, left ankle joint). The series can be described thus: Pharmacodynamics experiment A on gouty arthritis in rats: paw volume. In kind it is in vivo, SD rats. The conditions noted are these: for Paw volume versus model group, in words: time points after modeling; for Paw volume: Mean ± SEM. The procedure:
(§1) Compounds 2, 17, 26 and 27 were prepared by grinding with 0.5% CMC-Na into a suspension of the corresponding concentration (0.06 mg/mL) for gavage before administration, and the volume of administration was 10 mL/kg. […] Before use, 0.5% CMC-Na was used for grinding and prepared into a suspension of the corresponding concentration (0.06 mg/mL) for gavage, and the volume of drug administered was 10 mL/kg.
(§2) Each group of subjects was prepared into a suspension of the corresponding concentration, and the administration volume was 10 mL/kg.
(§3) The crystalline arthritis model was prepared by intra-articular injection of urate crystals (40 mg/mL, in the left ankle joint of each rat). Different doses of the test drug were given separately by gavage administration. The day of administration was defined as day 1 of the experiment, and the drug was administered once a day for 10 consecutive days (pre-administration of the drug for 7 days prior to modeling, modeling on day 8, and continuation of the drug for 3 days). The experiment ended on day 10.
Paw volume was measured before administration, before urate injection, and 2, 4, 8, 10, 24, and 48 h after injection.
(§4) The data obtained from the experiment were statistically analyzed using IBM SPSS Statistics 22.0. All measurements were expressed as Mean±S.E.M s. The data were analyzed using SPSS 22.0 statistical software and variance chi-square test was performed on the parameters.

For series [3] the test system is unchanged. Description: Pharmacodynamics experiment A on gouty arthritis in rats: gait score. Format: in vivo, SD rats. Details: Gait Score: scale not given here. The conditions noted are these: 0.6 mg/kg gavage; for Gait versus model group, in words: time points after modeling, P<0.05 or P<0.01; for Gait Score: Mean ± SEM. The method, then: as §1, §2, §3
The degree of lameness of the modeled joints was observed and scored at the same time point.
as §4

The test system is the same in series [4]. Description: Pharmacodynamics experiment A on gouty arthritis in rats: pain score. Format: in vivo, SD rats. On the set-up: Pain score: scale not given here. The conditions noted are these: 0.6 mg/kg gavage; for Pain versus model group, in words: time points after modeling, P<0.05 or P<0.01; for Pain score: Mean ± SEM. The method, then: as §1, §2, §3
The pain level was scored using the flexion and extension joint pain test scoring method at the same time point.
as §4

The mark [5] stands for this setting: Sprague-Dawley, rat, in vivo, 10 mg/kg.
The mark [6] stands for this setting: Sprague-Dawley, rat, in vivo, iv, 1 mg/kg.
Where [7] appears, read: Sprague-Dawley, rat, in vivo, po, 10 mg/kg.
[8] abbreviates: 2 h after modeling, 0.6 mg/kg gavage.
Where [9] appears, read: 4 h after modeling, 0.6 mg/kg gavage.
The mark [10] stands for this setting: 8 h after modeling, 0.6 mg/kg gavage.
Setting [11] is: 10 h after modeling, 0.6 mg/kg gavage.
[12] abbreviates: 24 h after modeling, 0.6 mg/kg gavage.
[13] abbreviates: 48 h after modeling, 0.6 mg/kg gavage.
[14] abbreviates: before modeling, 0.6 mg/kg gavage once a day.

Where two headings read alike, the source gives them in different places. Marks after values point to notes of the source that are not given here.

Regarding `[2H]C([2H])([2H])Oc1c(OC)c(OC)cc2c1-c1ccc(C(=O)NC)c(=O)cc1[C@@H](NC(C)=O)CC2` [Compound 132, (S)-7-acetamido-2,3-dimethoxy-1-trideuteromethoxy-N-methyl-9-oxo-5,6,7,9-tetrahydrobenzo[a]heptalen-10-carboxamide], the F in series [1] (setting [5]) was 47.5%. In series [1] (setting [6]), this compound showed an AUC(0-inf) of 0.702 µg·h/mL, an MRT inf of 1.06 h, a Vd of 1.39 L/kg and a clearance of 1.46 L/h/kg. In series [1] (setting [6]), this compound gave a half-life of 2.12 h. Besides, in series [1] (setting [7]), the AUC(0-inf) came out at 3.33 µg·h/mL, the Cmax was 1.78 µg/mL, the MRT inf was found to be 2.1 h and the Tmax is 0.25 h. The compound also had a half-life in series [1] (setting [7]) of 1.39 h.

As to `[2H]C([2H])([2H])Oc1cc2c(c(OC)c1OC([2H])([2H])[2H])-c1ccc(C(=O)NC)c(=O)cc1[C@@H](NC(C)=O)CC2` [Compound 124, (S)-7-acetamido-1-methoxy-2,3-bis(trideuteromethoxy)-N-methyl-9-oxo-5,6,7,9-tetrahydrobenzo[a] heptalen-10-carboxamide], the F in series [1] (setting [5]) stood at 44.7%. In series [1] (setting [6]), this compound showed an AUC(0-inf) of 0.756 µg·h/mL, an MRT inf of 0.652 h, a Vd of 0.864 L/kg and a clearance of 1.34 L/h/kg. Also, the half-life in series [1] (setting [6]) is 0.644 h. In series [1] (setting [7]), the AUC(0-inf) came out at 3.38 µg·h/mL, the Cmax amounted to 2.26 µg/mL, the MRT inf came out at 1.71 h and the time to peak (Tmax) was 0.333 h. For the same compound, in series [1] (setting [7]), the half-life is 1.38 h.

Turning to `COc1cc2c(c(OC)c1OC)-c1ccc(NS(C)(=O)=O)c(=O)cc1[C@@H](NC(C)=O)CC2` [Compound 2, (S)—N-(1,2,3-trimethoxy-10-methanesulfonylamino-9-oxo-5,6,7,9-tetrahydrobenzo[a]heptalen-7-yl)acetamide], the “Paw volume versus model group, in words” value in series [2] (0.6 mg/kg gavage) was “significantly reduce the paw volume at 2 h, 4 h, and 48 h”. In addition, the Paw volume is recorded as 2.51 ± 0.06* cm^3 in series [2] (setting [8]); 2.54 ± 0.04* cm^3 in series [2] (setting [9]); 2.63 ± 0.06 cm^3 in series [2] (setting [10]); 2.59 ± 0.07 cm^3 in series [2] (setting [11]); 2.52 ± 0.08 cm^3 in series [2] (setting [12]); 2.35 ± 0.06* cm^3 in series [2] (setting [13]). Further, in series [2] (setting [14]), the Paw volume is given as 2.18 ± 0.02 cm^3. In addition, the “Gait versus model group, in words” value in series [3] was “significantly improved the gait at 2 h, 8 h, 24 h, and 48 h”. The Gait Score is 1.10 ± 0.10 in series [3] (2 h after modeling); 1.10 ± 0.10 in series [3] (4 h after modeling); 1.10 ± 0.10 in series [3] (8 h after modeling); 1.20 ± 0.13 in series [3] (10 h after modeling); 1.00 ± 0.00 in series [3] (24 h after modeling); 1.00 ± 0.00 in series [3] (48 h after modeling). This compound also returned a Gait Score in series [3] (before modeling) of 0.00 ± 0.00. In addition, in series [4], the “Pain versus model group, in words” value was “significantly improved pain at 2 h, 4 h, 8 h, 10 h, 24 h, and 48 h”. Further, the Pain score is listed as 2.70 ± 0.68 in series [4] (2 h after modeling); 1.30 ± 0.52 in series [4] (4 h after modeling); 3.30 ± 0.54 in series [4] (8 h after modeling); 2.20 ± 0.68 in series [4] (10 h after modeling); 1.30 ± 0.62 in series [4] (24 h after modeling); 1.00 ± 0.67 in series [4] (48 h after modeling). Also, the Pain score in series [4] (before modeling) turned out to be 0.00 ± 0.00.

Take `CNC(=O)c1ccc2c(cc1=O)[C@@H](NC(C)=O)CCc1cc3c(c(OC)c1-2)OCO3` [Compound 125, (S)-6-acetamido-13-methoxy-N-methyl-4-oxo-4,6,7,8-tetrahydroheptalen[1′,2′:4,5]benzo[1,2-d][1,3]dioxolane-3-carboxamide]: the F in series [1] (Gavage - 10 mg/kg, calculated by AUCINF) is 93.0%. Moreover, the AUC(0-inf) in series [1] (Sprague-Dawley, rat, in vivo, po, Gavage - 10 mg/kg, read-out: AUCINF) was 5.46 µg·h/mL; in series [1] (Sprague-Dawley, rat, in vivo, Intravenous injection - 1 mg/kg, read-out: AUCINF), 0.587 µg·h/mL. In addition, in series [1] (Sprague-Dawley, rat, in vivo, po, Gavage - 10 mg/kg, read-out: Cmax), the Cmax was found to be 4.15 µg/mL. Also, the MRT inf in series [1] (Sprague-Dawley, rat, in vivo, po, Gavage - 10 mg/kg, read-out: MRTINF) came to 1.8 h; in series [1] (Sprague-Dawley, rat, in vivo, Intravenous injection - 1 mg/kg, read-out: MRTINF), 0.675 h. The time to peak (Tmax) in series [1] (Sprague-Dawley, rat, in vivo, po, Gavage - 10 mg/kg, read-out: Tmax) turned out to be 0.25 h. Also, the half-life in series [1] (Sprague-Dawley, rat, in vivo, po, Gavage - 10 mg/kg, read-out: t1/2 (converted)) is 3.33 h; in series [1] (Sprague-Dawley, rat, in vivo, Intravenous injection - 1 mg/kg, read-out: t1/2 (converted)), 1.19 h. For the same compound, the clearance in series [1] (Sprague-Dawley, rat, in vivo, Intravenous injection - 1 mg/kg, read-out: CL (converted)) is 1.71 L/h/kg. For the same compound, in series [1] (Sprague-Dawley, rat, in vivo, Intravenous injection - 1 mg/kg, read-out: VSS), the Vd was 1.15 L/kg.

For the compound `[2H]C([2H])([2H])NC(=O)c1ccc2c(cc1=O)[C@@H](NC(C)=O)CCc1cc(OC)c(OC)c(OC)c1-2` [Compound 56, (S)-7-acetamido-1,2,3-trimethoxy-N-(trideuterio)methyl-9-oxo-5,6,7,9-tetrahydrobenzo[a]heptalen-10-carboxamide], the F in series [1] (setting [5]) was found to be 62.3%. In series [1] (setting [6]), the AUC(0-inf) amounted to 0.597 µg·h/mL, the MRT inf came out at 0.582 h, the Vd was 0.977 L/kg and the clearance is 1.72 L/h/kg. Also, in series [1] (setting [6]), the half-life was 0.59 h. Further, in series [1] (setting [7]), the AUC(0-inf) was 3.72 µg·h/mL, the highest level (Cmax) was 1.64 µg/mL, the MRT inf was 2.2 h and the Tmax worked out at 0.417 h. In series [1] (setting [7]), the half-life is 1.27 h.

`COc1cc2c(c(OC)c1OC)-c1ccc(=O)c(OC3CCOC3)cc1[C@@H](NC(C)=O)CC2` (stereo partly drawn) [Compound 27, (S)—N-(1,2,3-trimethoxy-10-oxo-9-[(tetrahydrofuran-3-yl)oxy]-5,6,7,10-tetrahydrobenzo[a]heptalen-7-yl)acetamide]: the “Paw volume versus model group, in words” value in series [2] (0.6 mg/kg gavage) is “significantly reduce the paw volume at 2 h, 4 h, 8 h, 10 h, and 48 h”. Further, the Paw volume in series [2] (setting [8]) was 2.51 ± 0.04** cm^3; in series [2] (setting [9]) it was 2.54 ± 0.03* cm^3; in series [2] (setting [10]), 2.57 ± 0.04* cm^3; in series [2] (setting [11]), 2.55 ± 0.04* cm^3; in series [2] (setting [12]), 2.50 ± 0.07 cm^3; in series [2] (setting [13]), 2.29 ± 0.04** cm^3. In addition, the Paw volume in series [2] (setting [14]) is listed as 2.16 ± 0.04 cm^3. For the same compound, the “Gait versus model group, in words” value in series [3] was “significantly improved the gait at 2 h, 24 h, and 48 h”. Also, the Gait Score in series [3] (2 h after modeling) is reported as 1.00 ± 0.00; in series [3] (4 h after modeling) it was 1.10 ± 0.10; in series [3] (8 h after modeling), 1.40 ± 0.22; in series [3] (10 h after modeling) it was 1.20 ± 0.20; in series [3] (24 h after modeling), 1.00 ± 0.00; in series [3] (48 h after modeling), 1.00 ± 0.00. This compound had a Gait Score in series [3] (before modeling) of 0.00 ± 0.00. In series [4], the “Pain versus model group, in words” value is “significantly improved gait at 2 h, 8 h, 10 h, 24 h, and 48 h”. The Pain score is listed as 2.00 ± 0.67 in series [4] (2 h after modeling); 2.80 ± 0.68 in series [4] (4 h after modeling); 3.30 ± 0.47 in series [4] (8 h after modeling); 2.50 ± 0.65 in series [4] (10 h after modeling); 1.50 ± 0.60 in series [4] (24 h after modeling); 1.00 ± 0.60 in series [4] (48 h after modeling). Also, the Pain score in series [4] (before modeling) turned out to be 0.00 ± 0.00.

These data come from patent publication US20250129012A1, “ANTI-INFLAMMATORY AND ANALGESIC COMPOUNDS AND USE THEREOF” (JIANGSU ATOM BIOSCIENCE AND PHARMACEUTICAL CO., LTD., priority 2021, published 2025).
